Results as given in patent US10519134B2, “Pyrazole compounds and methods of making and using same” (Lundbeck La Jolla Research Center, Inc., priority 2015, dated 2019).

What was measured:
MAGL [1] = target: T1, MAGL (Mus musculus, UniProt O35678); test: Mouse brain proteomes from inhibitor treated mice (oral gavage, sacrificed 4 h after administration); format: in vivo; conditions: read-out: MAGL % inh. 5 mg/kg
T1 construct: Proteomes (mouse brain membrane fraction or cell lysates); from tissue; host or cells: mouse brain membrane fraction (or cell lysates)
T1 sequence (O35678 1-303): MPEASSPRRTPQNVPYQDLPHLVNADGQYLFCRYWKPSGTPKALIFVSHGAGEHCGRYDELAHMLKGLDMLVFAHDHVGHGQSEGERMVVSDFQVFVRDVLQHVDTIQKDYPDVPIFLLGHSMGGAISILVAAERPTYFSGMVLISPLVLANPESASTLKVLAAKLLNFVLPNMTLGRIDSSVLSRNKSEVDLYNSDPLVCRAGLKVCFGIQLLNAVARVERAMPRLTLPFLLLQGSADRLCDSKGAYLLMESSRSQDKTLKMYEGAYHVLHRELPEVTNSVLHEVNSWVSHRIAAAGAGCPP
How it was run: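 Brains were collected 4 h after oral gavage dosing of wild-type C57Bl/6J mice, vehicle polyethylene glycol. Proteomes from these brains were then analyzed for MAGL and other serine hydrolase activity.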

FAAH = target: T2, FAAH (Mus musculus, UniProt O08914); test: In vitro competitive activity-based protein profiling (mouse), FAAH gel band; format: biochemical; conditions: for inhibition at 1 µM: read-out: FAAH % inh. 1 μM; for IC50: mouse
T2 construct: Proteomes (mouse brain membrane fraction or cell lysates); from tissue; host or cells: mouse brain membrane fraction (or cell lysates)
T2 sequence (O08914 1-579): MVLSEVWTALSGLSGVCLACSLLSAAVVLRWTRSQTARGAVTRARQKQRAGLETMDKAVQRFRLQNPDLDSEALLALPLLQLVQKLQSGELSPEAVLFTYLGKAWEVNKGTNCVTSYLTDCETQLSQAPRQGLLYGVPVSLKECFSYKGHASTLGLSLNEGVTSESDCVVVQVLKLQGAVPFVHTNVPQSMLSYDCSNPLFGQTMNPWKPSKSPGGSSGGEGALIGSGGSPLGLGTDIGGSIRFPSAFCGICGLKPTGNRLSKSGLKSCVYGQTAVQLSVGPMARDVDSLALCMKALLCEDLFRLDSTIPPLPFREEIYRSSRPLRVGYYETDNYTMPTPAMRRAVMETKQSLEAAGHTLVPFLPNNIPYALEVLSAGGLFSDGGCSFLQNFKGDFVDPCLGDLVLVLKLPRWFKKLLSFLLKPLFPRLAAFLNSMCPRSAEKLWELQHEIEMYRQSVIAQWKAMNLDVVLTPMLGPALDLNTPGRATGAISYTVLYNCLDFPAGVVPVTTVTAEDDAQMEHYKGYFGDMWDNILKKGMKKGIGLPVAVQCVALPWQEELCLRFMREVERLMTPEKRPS
How it was run: (§1)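 Competitive ABPP: inhibitors at varying concentrations were given 30 min at 37 °C with mouse brain membranes or cell lysates (1.0 mg/mL total protein) before 30 min labelling by FP-Rh or HT-01 (stock 50 μM in DMSO). Residual hydrolase activity read as in-gel fluorescence of MAGL and FAAH bands.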

MAGL [2] = target: T1, MAGL; test: In vitro competitive activity-based protein profiling (mouse), MAGL gel band; format: biochemical; conditions: for inhibition at 1 µM: read-out: MAGL % inh. 1 μM; for IC50: mouse
How it was run: as §1

MAGL [3] = target: T3, MAGL (Homo sapiens, UniProt Q99685); test: In vitro competitive activity-based protein profiling (human), MAGL gel band; format: biochemical
T3 construct: Proteomes (human prefrontal cortex or cell membrane fractions); from tissue; host or cells: human prefrontal cortex (or cell membrane fractions)
T3 sequence (Q99685 1-303): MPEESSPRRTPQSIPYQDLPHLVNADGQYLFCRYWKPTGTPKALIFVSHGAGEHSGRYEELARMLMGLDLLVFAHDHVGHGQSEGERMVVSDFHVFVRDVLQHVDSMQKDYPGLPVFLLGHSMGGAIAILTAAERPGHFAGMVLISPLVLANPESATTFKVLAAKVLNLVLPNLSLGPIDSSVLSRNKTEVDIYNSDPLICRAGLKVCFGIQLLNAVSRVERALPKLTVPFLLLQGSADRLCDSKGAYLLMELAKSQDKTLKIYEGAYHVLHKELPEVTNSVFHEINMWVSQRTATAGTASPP
How it was run: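 Human prefrontal cortex or cell membrane proteomes (1.0-2.0 mg/mL protein) preincubated with inhibitors 30 min at 37° C, then labelled with FP-Rh or JW912 probe 30 min at room temperature. Residual MAGL activity read as fluorescent gel-band intensity after SDS-PAGE.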

Row | Structure (SMILES) | inhibition at 5 mg/kg (MAGL [1]) [%] | inhibition at 1 µM (FAAH) [%] | inhibition at 1 µM (MAGL [2]) [%] | IC50 (MAGL [3]) [nM] | IC50 (FAAH) [nM] | IC50 (MAGL [2]) [nM]
1 | CS(=O)(=O)Nc1ccn(C(=O)N2CCN(Cc3ccc(C(F)(F)F)c(N4C5CCC4COC5)c3)CC2)n1 [Example 218, N-(1-(4-(3-(3-oxa-8-azabicyclo[3.2.1]octan-8-yl)-4-(trifluoromethyl)benzyl)piperazine-1-carbonyl)-1H-pyrazol-3-yl) methanesulfonamide] | 25 to 50 | 0 to 25 | ≥ 75 | ≤ 100 | – | –
2 | CS(=O)(=O)Nc1ccn(C(=O)N2CCN(Cc3ccc(C(F)(F)F)cc3N3CCC(C(=O)O)CC3)CC2)n1 [Example 186, 1-(2-((4-(3-(methylsulfonamido)-1H-pyrazole-1-carbonyl)piperazin-1-yl)methyl)-5-(trifluoromethyl)phenyl)piperidine-4-carboxylic acid] | 0 to 25 | 0 to 25 | ≥ 75 | 100 to 1000 | 1000 to 10000 | 100 to 1000
3 | CS(=O)(=O)Nc1ccn(C(=O)N2CCN(Cc3ccc(Cl)c(N4C5CCC4COC5)c3)CC2)n1 [Example 204, N-(1-(4-(3-(3-oxa-8-azabicyclo[3.2.1]octan-8-yl)-4-chlorobenzyl)piperazine-1-carbonyl)-1H-pyrazol-3-yl) methanesulfonamide] | 0 to 25 | 0 to 25 | ≥ 75 | ≤ 100 | 1000 to 10000 | 100 to 1000
4 | CC(=O)Nc1ccn(C(=O)N2CCC3(CCCN3Cc3ccc(C)c(Cl)c3)CC2)n1 [Example 96, N-(1-(1-(3-chloro-4-methylbenzyl)-1,8-diazaspiro[4.5]decane-8-carbonyl)-1H-pyrazol-3-yl)acetamide] | ≥ 75 | 0 to 25 | ≥ 75 | ≤ 100 | 1000 to 10000 | ≤ 100
5 | CC(=O)N1CCC2(CC1)CN(c1cc(C(F)(F)F)ccc1CN1CCN(C(=O)n3ccc(NS(C)(=O)=O)n3)CC1)C2 [Example 229, N-(1-(4-(2-(7-acetyl-2,7-diazaspiro[3.5]nonan-2-yl)-4-(trifluoromethyl)benzyl)piperazine-1-carbonyl)-1H-pyrazol-3-yl) methanesulfonamide] | 0 to 25 | 0 to 25 | ≥ 75 | ≤ 100 | – | –
6 | CS(=O)(=O)Nc1ccn(C(=O)N2CCN(Cc3ccc(Cl)c(N4CC5CN(S(C)(=O)=O)CC5C4)c3)CC2)n1 (stereo not shown) [Example 217, N-(1-(4-(4-chloro-3-(5-(methylsulfonyl)hexahydropyrrolo[3,4-c]pyrrol-2(1H)-yl)benzyl)piperazine-1-carbonyl)-1H-pyrazol-3-yl) methanesulfonamide] | 0 to 25 | 0 to 25 | ≥ 75 | ≤ 100 | – | –
7 | CS(=O)(=O)Nc1ccn(C(=O)N2CCC3(CCCN3Cc3ccc(C(F)(F)F)cc3N3C[C@H]4CC[C@@H](C3)O4)CC2)n1 [Example 136, N-(1-(1-(2-((1R,5S)-8-oxa-3-azabicyclo[3.2.1]octan-3-yl)-4-(trifluoromethyl)benzyl)-1,8-diazaspiro[4.5]decane-8-carbonyl)-1H-pyrazol-3-yl) methanesulfonamide] | 0 to 25 | 0 to 25 | ≥ 75 | ≤ 100 | 1000 to 10000 | 100 to 1000
8 | CS(=O)(=O)Nc1ccn(C(=O)N2CCN(Cc3ccc(C(F)(F)F)cc3N3CCCC3)CC2)n1 [Example 188, N-(1-(4-(2-(pyrrolidin-1-yl)-4-(trifluoromethyl)benzyl)piperazine-1-carbonyl)-1H-pyrazol-3-yl) methanesulfonamide] | ≥ 75 | 0 to 25 | ≥ 75 | ≤ 100 | 1000 to 10000 | ≤ 100
9 | CC(=O)N1CCC2(CC1)CCN(c1cc(C(F)(F)F)ccc1CN1CCN(C(=O)n3ccc(NS(C)(=O)=O)n3)CC1)C2 [Example 232, N-(1-(4-(2-(8-acetyl-2,8-diazaspiro[4.5]decan-2-yl)-4-(trifluoromethyl)benzyl)piperazine-1-carbonyl)-1H-pyrazol-3-yl) methanesulfonamide] | 0 to 25 | 0 to 25 | ≥ 75 | ≤ 100 | – | –
10 | CC(=O)Nc1ccn(C(=O)N2CCC3(CCCN3Cc3ccc(Cl)c(C4CC4)c3)CC2)n1 [Example 111, N-(1-(1-(4-chloro-3-cyclopropylbenzyl)-1,8-diazaspiro[4.5]decane-8-carbonyl)-1H-pyrazol-3-yl)acetamide] | 0 to 25 | 0 to 25 | ≥ 75 | ≤ 100 | – | –

Results, then the molecule that gave them:

Row | inhibition at 5 mg/kg (MAGL [1]) [%] | inhibition at 1 µM (FAAH) [%] | inhibition at 1 µM (MAGL [2]) [%] | IC50 (MAGL [3]) [nM] | IC50 (FAAH) [nM] | IC50 (MAGL [2]) [nM] | Structure (SMILES)
11 | ≥ 75 | 0 to 25 | ≥ 75 | ≤ 100 | – | – | CS(=O)(=O)Nc1ccn(C(=O)N2CCN(Cc3ccc(Cl)c(N4CCCC4)c3)CC2)n1 [Example 165, N-(1-(4-(4-chloro-3-(pyrrolidin-1-yl)benzyl)piperazine-1-carbonyl)-1H-pyrazol-3-yl) methanesulfonamide]
12 | ≥ 75 | 0 to 25 | ≥ 75 | ≤ 100 | 1000 to 10000 | ≤ 100 | CS(=O)(=O)Nc1ccn(C(=O)N2CCN(Cc3cc(N4CCCC4)cc(C(F)(F)F)c3)CC2)n1 [Example 156, N-(1-(4-(3-(pyrrolidin-1-yl)-5-(trifluoromethyl)benzyl)piperazine-1-carbonyl)-1H-pyrazol-3-yl) methanesulfonamide]
13 | 0 to 25 | 0 to 25 | ≥ 75 | ≤ 100 | 1000 to 10000 | ≤ 100 | CC(=O)Nc1ccn(C(=O)N2CCN(Cc3ccc(Cl)cc3N3CCN(S(C)(=O)=O)CC3)CC2)n1 [Example 52, N-(1-(4-(4-chloro-2-(4-(methylsulfonyl)piperazin-1-yl)benzyl)piperazine-1-carbonyl)-1H-pyrazol-3-yl)acetamide]
14 | 25 to 50 | 0 to 25 | ≥ 75 | ≤ 100 | – | – | CS(=O)(=O)Nc1ccn(C(=O)N2CCN(Cc3ccc(Cl)c(OC4CCOCC4)c3)CC2)n1 [Example 219, N-(1-(4-(4-chloro-3-((tetrahydro-2H-pyran-4-yl)oxy)benzyl)piperazine-1-carbonyl)-1H-pyrazol-3-yl) methanesulfonamide]
15 | ≥ 75 | 0 to 25 | ≥ 75 | ≤ 100 | 1000 to 10000 | ≤ 100 | CC(=O)Nc1ccn(C(=O)N2CCC3(CCCN3Cc3ccc(Cl)c(C)c3)CC2)n1 [Example 94, N-(1-(1-(4-chloro-3-methylbenzyl)-1,8-diazaspiro[4.5]decane-8-carbonyl)-1H-pyrazol-3-yl)acetamide]
